20 compounds from ChEMBL document CHEMBL5260848, “Recent advancements in the development of bioactive pyrazoline derivatives” (Eur J Med Chem, 2020) can be followed below.

The test system of one experiment is Aspergillus niger. The experiment in a line: Antifungal activity against Aspergillus niger by agar dilution method. The experiment is classed as functional.
A further experiment deals with Candida albicans. The experiment in a line: Antifungal activity against Candida albicans assessed as reduction in microbial growth. It counts as functional.
Another experiment has as its system Cryptococcus neoformans. Nature of the experiment: Antifungal activity against Cryptococcus neoformans assessed as reduction in microbial growth. The experiment is classed as functional.
Experiment [1] is described as follows: Cytotoxicity against human Panel NCI-58 (58 carcinoma cell lines) cells. The experiment is classed as functional.
The nature of experiment [2]: Growth inhibition of human Panel NCI-58 (58 carcinoma cell lines) cells by SRB method. It counts as functional.
The nature of experiment [3]: Cytotoxicity against human Panel NCI-58 (58 carcinoma cell lines) cells by SRB method. It counts as functional. To be noted: read-out: LC50 (the source's name).
In experiment [4] the test system is Escherichia coli. The experiment in a line: Antibacterial activity against Escherichia coli assessed as inhibition of bacterial growth. It counts as functional.
For experiment [5], the system named is Bacillus subtilis. The experiment in a line: microbe, parasite or virus in culture.
In experiment [6] the test system is Pseudomonas aeruginosa. Nature of the experiment: Antibacterial activity against Pseudomonas aeruginosa assessed as inhibition of bacterial growth. The experiment is classed as functional.
Experiment [7] has as its system Staphylococcus aureus. The experiment in a line: microbe, parasite or virus in culture.
In experiment [8] the test system is Escherichia coli. Nature of the experiment: Antibacterial activity against Escherichia coli by agar dilution method. It counts as functional.
Experiment [9] deals with Pseudomonas aeruginosa. Nature of the experiment: Antibacterial activity against Pseudomonas aeruginosa by agar dilution method. It counts as functional.
The subject of experiment [10] is Staphylococcus aureus. Nature of the experiment: Antibacterial activity against Staphylococcus aureus by agar dilution method. It counts as functional.
The subject of experiment [11] is Bacillus subtilis. The experiment in a line: Antibacterial activity against Bacillus subtilis by agar dilution method. It counts as functional.
In experiment [12] the test system is Mycobacterium tuberculosis. Nature of the experiment: microbe, parasite or virus in culture. To be noted: H37Rv.
The test system of experiment [13] is HepG2. Nature of the experiment: cells. To be noted: Homo sapiens.
A further experiment concerns the target Acetylcholinesterase (Homo sapiens, UniProt P22303).
For experiment [14], the species on record is Mus musculus. The experiment in a line: Antidepressant activity in Swiss albino mouse assessed as decrease in immobility time by forced swimming test. The experiment is classed as functional.
The species entered for experiment [15] is Mus musculus. The experiment in a line: Antidepressant activity in Swiss albino mouse assessed as decrease in immobility time by tail suspension test. The experiment is classed as functional.
The subject of experiment [16] is Mycobacterium tuberculosis. The experiment in a line: Antimycobacterial activity against Mycobacterium tuberculosis. It counts as functional.
In experiment [17] the test system is Mycobacterium tuberculosis. The experiment in a line: microbe, parasite or virus in culture. To be noted: 120 h.
The test system of experiment [18] is Pseudomonas aeruginosa. The experiment in a line: Antibacterial activity against Pseudomonas aeruginosa ATCC 27853 by plate dilution method. The experiment is classed as functional.
For the next experiment, the system named is Proteus vulgaris. The experiment in a line: Antibacterial activity against Proteus vulgaris ATCC 9920 by plate dilution method. It counts as functional.
Experiment [19] concerns Bordetella bronchiseptica. Nature of the experiment: Antibacterial activity against Bordetella bronchiseptica ATCC 4617 by plate dilution method. It counts as functional.
Another experiment relates to Enterococcus faecalis. The experiment in a line: Antibacterial activity against Enterococcus faecalis ATCC 29212 by plate dilution method. It counts as functional.
The next experiment relates to Bacillus cereus. Nature of the experiment: Antibacterial activity against Bacillus cereus ATCC 9946 by plate dilution method. The experiment is classed as functional.
Experiment [20] relates to Staphylococcus epidermidis. Nature of the experiment: Antibacterial activity against Staphylococcus epidermidis ATCC 12228 by plate dilution method. It counts as functional.
Experiment [21] has as its system Bacillus subtilis. Nature of the experiment: Antibacterial activity against Bacillus subtilis ATCC 6633 by plate dilution method. The experiment is classed as functional.
The next experiment relates to Klebsiella pneumoniae. The experiment in a line: Antibacterial activity against Klebsiella pneumoniae ATCC 700603 by plate dilution method. The experiment is classed as functional.
The test system of experiment [22] is Staphylococcus aureus. The experiment in a line: Antibacterial activity against Staphylococcus aureus ATCC 25923 by plate dilution method. It counts as functional.
Experiment [23] deals with Escherichia coli. The experiment in a line: Antibacterial activity against Escherichia coli ATCC 25922 by plate dilution method. The experiment is classed as functional.
For experiment [24], the system named is HepG2. Nature of the experiment: Cytotoxicity against human HepG2 cells assessed as growth inhibition. The experiment is classed as functional, cell-based.

≈ marks a conversion by molar mass, not a printed value. Bounds are passed on as bounds.

Chain of Acetylcholinesterase (P22303 whole entry): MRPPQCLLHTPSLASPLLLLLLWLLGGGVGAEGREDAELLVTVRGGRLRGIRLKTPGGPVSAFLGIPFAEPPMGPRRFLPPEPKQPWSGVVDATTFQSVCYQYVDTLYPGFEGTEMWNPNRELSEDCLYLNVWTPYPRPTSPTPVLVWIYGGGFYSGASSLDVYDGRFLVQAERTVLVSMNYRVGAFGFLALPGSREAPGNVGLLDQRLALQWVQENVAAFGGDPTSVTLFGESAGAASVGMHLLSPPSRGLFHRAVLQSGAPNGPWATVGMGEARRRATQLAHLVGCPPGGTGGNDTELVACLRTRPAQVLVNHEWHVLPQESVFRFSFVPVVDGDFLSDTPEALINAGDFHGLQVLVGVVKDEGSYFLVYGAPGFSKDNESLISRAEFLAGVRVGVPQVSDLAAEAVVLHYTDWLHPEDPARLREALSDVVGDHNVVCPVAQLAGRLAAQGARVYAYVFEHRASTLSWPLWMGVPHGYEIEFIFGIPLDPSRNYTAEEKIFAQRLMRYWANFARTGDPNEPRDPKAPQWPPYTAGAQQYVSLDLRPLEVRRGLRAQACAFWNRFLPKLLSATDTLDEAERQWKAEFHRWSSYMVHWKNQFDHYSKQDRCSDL

As for `Cc1ccc2c(c1)cc(C1CC(c3cc(Br)ccc3O)=NN1)c1nnnn12` (stereo not given), the MIC with Aspergillus niger was 25 µg/mL (≈ 59.1 µM).

As to `COc1ccc(C2CC(c3cccc(Nc4ccnc5cc(Cl)ccc45)c3)=NN2c2ccccc2)cc1` (stereo not given), the MIC50 in the experiment on Candida albicans and with Cryptococcus neoformans was 3.9 µg/mL throughout. The GI50 in experiment [1] was less than 1 µM.

In the case of `COc1cc(C2CC(c3ccc(Nc4ccnc5cc(Cl)ccc45)cc3)=NN2c2ccc(Cl)cc2)cc(OC)c1OC` (stereo not given), the MIC50 in the experiment on Candida albicans and in the experiment on Cryptococcus neoformans was 3.9 µg/mL throughout. In experiment [1], this compound came in with a GI50 of less than 1 µM.

The compound `OCCNc1nc(NCCO)nc(Nc2ccc(C3=NN(c4cc(Cl)cc(Cl)c4)C(c4ccc(C(F)(F)F)cc4)C3)cc2)n1` (stereo not given) came in with a GI50 in experiment [2] of 0.569 µM. In experiment [3], the CC50 was 5.15 µM.

Turning to `CC(=O)N1N=C(c2ccc(Br)cc2)CC1c1cc(Cl)ccc1Oc1c([N+](=O)[O-])cc(C(F)(F)F)cc1[N+](=O)[O-]` (stereo not given), the MIC was determined as 0.39 µg/mL (≈ 0.621 µM) in the experiment on Escherichia coli [4], 3.12 µg/mL (≈ 4.98 µM) against Bacillus subtilis [5], 0.39 µg/mL (≈ 0.621 µM) in the experiment on Pseudomonas aeruginosa [6] and 3.12 µg/mL (≈ 4.98 µM) in the experiment on Staphylococcus aureus [7].

On to `Oc1ccc(Br)cc1C1=NOC(c2cc3ccccc3n3nnnc23)C1` (stereo not given), for which the MIC with Escherichia coli [8], in the experiment on Pseudomonas aeruginosa [9], against Staphylococcus aureus [10] and with Bacillus subtilis [11] was 25 µg/mL (≈ 60.9 µM) each time.

As for `COc1ccc(C2CC(c3cccc(Nc4ccnc5cc(Cl)ccc45)c3)=NN2c2ccc(Cl)cc2)cc1` (stereo not given), the MIC50 was 3.9 µg/mL in the experiment with Candida albicans and less than 3.9 µg/mL in the experiment with Cryptococcus neoformans. In addition, the MIC in the experiment on Cryptococcus neoformans (read-out: MIC100) is less than 3.9 µg/mL. Further, the GI50 in experiment [1] is less than 1 µM.

`NNC(=O)c1ccncc1` [ISONIAZID] showed an MIC in [12] of 6.25 µg/mL (≈ 45.6 µM).

Take `COc1cc(C2CC(c3ccccc3O)=NN2c2cc3ccccc3s2)cc(OC)c1O` (stereo not given): in the experiment on HepG2 [13], half-maximal inhibition (IC50) required 3.57 µM.

In experiment [2], `OCCNc1nc(NCCO)nc(Nc2ccc(C3=NN(c4cc(Cl)cc(Cl)c4)C(c4ccc(Cl)cc4)C3)cc2)n1` (stereo not given) showed a GI50 of 0.569 µM. Besides, the CC50 in experiment [3] is 5.15 µM.

As to `Cc1ccc2cc(C3CC(c4cc(Cl)sc4Cl)=NN3)c(Cl)nc2c1` (stereo not given), the IC50 against Acetylcholinesterase came to 0.15 µM.

`COc1ccc(C2CC(c3ccc(-c4cc(F)cc(F)c4)nc3C)=NN2)cc1OC` (stereo not given) came in with an MIC in experiment [12] of 12.5 µg/mL (≈ 30.5 µM). Further, the Time in the experiment listed under Mus musculus [14] came to 66.67 s; in the experiment filed under Mus musculus [15], 70.33 s.

For the compound `COc1ccc2c(c1)C1=NN(CCCN(C)C)C3=CC=C([N+](=O)[O-])C(N2)C31` (stereo not given), the MIC came out at 3.12 µg/mL (≈ 8.45 µM) in [16] and 3.12 µg/mL (≈ 8.46 µM) in experiment [17].

Consider `Cc1ccc(C(=O)/C=C/c2ccc(N3CCCCC3)cc2)s1`, for which 0.13 µM corresponded to half-maximal inhibition against Acetylcholinesterase (IC50).

Consider `O=c1oc2ccc(F)cc2cc1-c1csc(N2N=C(c3ccccc3F)CC2c2cc3ccccc3nc2Cl)n1` (stereo not given), for which the MIC (in the experiment with Pseudomonas aeruginosa [18]; in the experiment on Proteus vulgaris; in experiment [19]; with Enterococcus faecalis; with Bacillus cereus; in experiment [20]) was 50 µg/mL (≈ 87.6 µM) each time. Moreover, the MIC against Bacillus subtilis [21], with Klebsiella pneumoniae, in the experiment with Staphylococcus aureus [22] and with Escherichia coli [23] was 50 µg/mL (≈ 87.6 µM) in each case.

Consider `Cc1nc(-c2ccc(Br)cc2)ccc1C1=NNC(c2c(F)cccc2Cl)C1` (stereo not given), for which, in experiment [12], the MIC came to 12.5 µg/mL (≈ 28.1 µM). The Time is given as 66.67 s in the experiment listed under Mus musculus [14] and 70.33 s in the experiment listed under Mus musculus [15].

Regarding `CC(=O)N1N=C(c2nnn(-c3ccc(-n4nnc(C5=NN(C(C)=O)C(c6ccccc6)C5)c4C)cc3)c2C)CC1c1ccccc1` (stereo not given), the IC50 in the experiment with HepG2 [13] came to 57.1 µg/mL.

Compound `COc1cc(C2CC(c3ccc(Nc4nc(NCCO)nc(NCCO)n4)cc3)=NN2c2cc(Cl)cc(Cl)c2)cc(OC)c1OC` (stereo not given) returned a 50% growth inhibitory concentration (GI50) in experiment [2] of 0.569 µM. Further, the CC50 in [3] turned out to be 5.15 µM.

Take `Fc1ccc(-c2csc(N3N=C(c4cccs4)CC3c3ccc(Cl)cc3Cl)n2)cc1` (stereo not given): the IC50 in the experiment on HepG2 [24] came to 1.7 µM.

`Cc1ccc2cc(C3CC(c4sccc4Cl)=NN3)c(Cl)nc2c1` (stereo not given): the half-maximal inhibitory concentration (IC50) against Acetylcholinesterase turned out to be 0.2 µM.
